Source: PubChem BioAssay AID1078 (Emory University Molecular Libraries Screening Center, 2008)

Target: Estrogen receptor (Homo sapiens) (UniProt P03372)
Test: inhibitors of estradiol-driven ERα reporter activity – HEC-1 cells, luciferase reporter, 1 nM E2, orthogonal assay for ERα coactivator binding inhibitor project, dose response (AID 1078)
Conditions: ERE-luciferase reporter, 1 nM E2, 24 h

Estrogen receptor (Homo sapiens), sequence (P03372 whole entry, looked up): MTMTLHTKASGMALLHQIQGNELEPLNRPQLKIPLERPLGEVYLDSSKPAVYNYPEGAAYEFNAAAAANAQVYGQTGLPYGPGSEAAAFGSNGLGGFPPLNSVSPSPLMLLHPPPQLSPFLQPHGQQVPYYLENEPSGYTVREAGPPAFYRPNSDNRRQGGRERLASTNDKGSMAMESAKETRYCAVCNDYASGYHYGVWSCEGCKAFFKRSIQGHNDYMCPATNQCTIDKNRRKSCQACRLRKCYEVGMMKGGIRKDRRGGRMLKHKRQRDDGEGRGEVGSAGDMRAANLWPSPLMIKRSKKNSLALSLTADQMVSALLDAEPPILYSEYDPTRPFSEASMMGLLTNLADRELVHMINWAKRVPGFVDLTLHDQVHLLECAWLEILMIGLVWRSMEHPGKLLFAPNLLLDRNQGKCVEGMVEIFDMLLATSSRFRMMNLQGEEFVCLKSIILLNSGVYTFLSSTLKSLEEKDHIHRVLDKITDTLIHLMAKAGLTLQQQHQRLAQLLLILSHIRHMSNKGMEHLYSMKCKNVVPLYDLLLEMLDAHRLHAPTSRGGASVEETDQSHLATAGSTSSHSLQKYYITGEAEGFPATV

`Cc1ccc(-n2c(=O)c(C#N)cc3c(=O)n4cccc(C)c4nc32)cc1` gave an IC50 of 4.65 µM.
